Measured values taken from PMC11968506, “Toxicokinetics and analytical toxicology of the phenmetrazine-derived new psychoactive substance 3,4-methylenedioxyphenmetrazine studied by means of in vitro systems” (Archives of Toxicology, 2025).
Read-outs that look alike come from different tables or passages of the source.

Tests used:
[1] = cited from earlier work
[2] = ref Alberto-Silva et al. 2024; cited from earlier work
[3] = In vitro metabolism by pooled human liver S9 fraction; assay type: in vitro ADME; conditions: MDPM 25 µM, pHLS9 2 mg/mL, 60 and 360 min; tentative identification
Protocol: Incubations with pHLS9 were performed in accordance with previous publications and minor adjustments (Richter et al. [2017]). First, 25 μg/mL alamethicin (UGT reaction mix B), pHLS9 (2 mg microsomal protein/mL), 0.1 mM AcCoA, 2.3 mM acetylcarnitine, 8 U/mL carnitine acetyltransferase, 2.5 mM isocitrate, 0.8 U/mL isocitrate dehydrogenase, 100 U/mL superoxide dismutase, 0.6 mM NADP^+ and 2.5 mM Mg^2+ were preincubated for 10 min at 37 °C. Then, 2.5 mM UDP-glucuronic acid (UGT reaction mix A), 40 µM PAPS, 1.2 mM SAM, 1 mM DTT and 10 mM GSH were added. The reaction was started by adding the respective substrate MDPM, MDMA, or quetiapine (25 µM each). MDMA and quetiapine were incubated as positive controls. Negative control samples without enzymes and blank samples without substrates were incubated to identify not metabolically formed compounds and to confirm the absence of interfering compounds. […] Aliquots (50 µL) were transferred to a new reaction tube after 60 and 360 min. […] Samples were vortexed, stored at − 20 °C for 30 min, and centrifuged for 2 min at 18,407×g.

CYP2D6 [4] = target: T1, CYP2D6 (Homo sapiens, UniProt P10635); assay: Monooxygenase mapping (ten human cDNA-expressed CYP isoforms and FMO3); assay type: in vitro ADME; parameters: Then, pHLM (0.4 mg microsomal protein/mL) was added to each group except the negative control; tissue Discovery Life Sciences; host or cells: pooled human liver microsomes, 25 donors; conditions: MDPM 25 µM, CYP 50 pmol/mL each or FMO3 0.25 mg protein/mL, 90 and 270 min
T1 sequence (P10635 whole entry, canonical isoform): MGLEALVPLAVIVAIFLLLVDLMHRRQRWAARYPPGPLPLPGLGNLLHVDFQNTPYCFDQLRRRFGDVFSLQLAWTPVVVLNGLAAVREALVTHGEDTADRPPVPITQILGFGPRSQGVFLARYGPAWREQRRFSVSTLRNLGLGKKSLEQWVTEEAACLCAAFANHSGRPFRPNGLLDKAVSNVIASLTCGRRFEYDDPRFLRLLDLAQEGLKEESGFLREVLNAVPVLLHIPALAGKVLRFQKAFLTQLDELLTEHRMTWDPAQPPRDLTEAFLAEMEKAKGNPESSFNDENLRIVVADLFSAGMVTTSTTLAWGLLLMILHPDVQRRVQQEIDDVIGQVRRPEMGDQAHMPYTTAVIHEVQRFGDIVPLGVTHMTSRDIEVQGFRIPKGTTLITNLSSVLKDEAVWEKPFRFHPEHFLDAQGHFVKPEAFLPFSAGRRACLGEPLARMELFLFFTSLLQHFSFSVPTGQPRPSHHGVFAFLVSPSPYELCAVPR
Protocol: As described elsewhere (Wagmann et al. [2016]) and with minor modifications, MDPM (25 µM) was incubated with 2.5 mM isocitrate, 0.8 U/mL isocitrate dehydrogenase, 100 U/mL superoxide dismutase, 0.6 mM NADP^+, 2.5 mM Mg^2+ and CYP1A2, CYP2A6, CYP2B6, CYP2C8, CYP2C9, CYP2C19, CYP2D6, CYP2E1, CYP3A4, CYP3A5 (50 pmol/mL each), or FMO3 (0.25 mg protein/mL) for 90 and 270 min at 37 °C. For incubations with CYP2A6 or CYP2C9, phosphate buffer was replaced with 90 mM Tris buffer, according to the manufacturer’s guideline. Thirty µL aliquots were taken at both timepoints. The reaction was stopped using 20 µL acetonitrile (− 20 °C) with 2.5 µM trimipramine-d3 as an internal standard. All incubations were done in duplicates and concentrations are final. […] Negative control samples without enzymes and blank samples without substrate were incubated to identify not metabolically formed compounds and to confirm the absence of interfering compounds.

[5] = In vitro metabolism by HepaRG cells; assay type: in vitro ADME, human; conditions: MDPM 25 µM and 250 µM, tentative identification
Protocol: Cell incubations were performed in a monolayer assay as previously described (Richter et al. [2019]) and in accordance with the manufacturer’s instructions. HepaRG cells were thawed and resuspended in 13.5 mL (~ 740,000 cells/mL) thaw and seed medium at 37 °C. Thaw and seed medium consisted of Williams E medium, 100 U/mL penicillin, 100 µg/mL streptomycin, GlutaMAX and HPRG670 supplement. Cells were handled under sterile conditions using a laminar flow bench class II (Thermo Scientific, TF, Schwerte, Germany). Aliquots of 100 µL cell suspension were seeded on collagen-coated 96-well plates (~ 74,000 cells/well). Evaporation was minimized by filling the outer wells with 100 µL thaw and seed medium. Cells were preincubated for 4 h in an incubator (Binder, Tuttlingen, Germany) at 37 °C, 95% air humidity, and 5% CO2. After preincubation, 50 µL of the thaw and seed medium was replaced with 50 µL MDPM solution (25 µM and 250 µM final concentrations), followed by an incubation for 24 h at 37 °C, 95% air humidity, and 5% CO2 atmosphere. MDMA or quetiapine (25 µM and 250 µM final concentrations, respectively) were incubated as positive controls. All incubations were done in triplicates. Each well contained 0.5% (v/v) DMSO. […]

[6] = In vitro metabolism by pooled human liver microsomes; assay type: in vitro ADME; conditions: MDPM 25 µM, pHLM 1 mg/mL, 60 and 120 min; tentative identification
Protocol: Incubations with pHLM were in accordance with previous publications and minor modifications (Richter et al. [2017]). First, 2.5 mM isocitrate, 0.8 U/mL isocitrate dehydrogenase, 100 U/mL superoxide dismutase, 0.6 mM NADP^+, 2.5 mM Mg^2+ and pHLM (1 mg microsomal protein/mL) were preincubated for 10 min at 37 °C. […] Substances were incubated for 60 and 120 min at 37 °C. All concentrations are final concentrations, and incubations were done in duplicates. 50 µL aliquots were transferred to a new reaction tube at both timepoints. The reaction was stopped by adding 30 µL acetonitrile (− 20 °C) with 2.5 µM trimipramine-d3 as an internal standard. Negative control samples without enzymes and blank samples without substrates were performed to identify not metabolically formed compounds and to confirm the absence of interfering compounds.

CYP2C19 = CYP2C19 (Homo sapiens, UniProt P33261); assay: CYP inhibition cocktail assay in pHLM, CYP2C19 (omeprazole); conditions: inhibitor 20 µM, omeprazole 21 µM, pHLM 0.4 mg/mL, 15 min; control without inhibitor = 100%
Chain of CYP2C19 (P33261 whole entry): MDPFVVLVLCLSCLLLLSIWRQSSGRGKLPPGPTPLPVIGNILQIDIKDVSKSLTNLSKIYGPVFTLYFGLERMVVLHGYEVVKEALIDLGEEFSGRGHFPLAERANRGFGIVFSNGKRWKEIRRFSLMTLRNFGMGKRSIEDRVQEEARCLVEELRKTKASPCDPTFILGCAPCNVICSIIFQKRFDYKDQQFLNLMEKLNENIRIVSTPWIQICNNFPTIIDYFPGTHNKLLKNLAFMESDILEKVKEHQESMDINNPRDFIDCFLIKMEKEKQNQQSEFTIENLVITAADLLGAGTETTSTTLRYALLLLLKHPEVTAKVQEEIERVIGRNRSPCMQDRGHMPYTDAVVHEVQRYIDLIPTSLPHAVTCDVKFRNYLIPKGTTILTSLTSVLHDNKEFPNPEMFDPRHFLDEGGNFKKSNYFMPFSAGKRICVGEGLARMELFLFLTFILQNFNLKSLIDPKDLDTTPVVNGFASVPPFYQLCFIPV
Protocol: (§1) A modified dual-cocktail based method (Dinger et al. [2014b]) was used. Substrate cocktail A consisted of 8.9 µM dextromethorphan (CYP2D6), 86 µM testosterone (CYP3A4), 3.5 µM diclofenac (CYP2C9), and 12 µM phenacetin (CYP1A2). Substrate cocktail B included 30 µM bupropion (CYP2B6), 2 µM amodiaquine (CYP2C8) and 21 µM omeprazole (CYP2C19). Substrate concentrations were near their respective Michaelis–Menten constant (Km) values (Dinger et al. [2014a]) and all concentrations are final. Enzyme inhibition was investigated using a positive control, a test group, a control group, an interference group, and a negative control. In the test group, specific inhibitors were replaced by MDPM (20 µM). Instead of inhibitors, phosphate buffer was used in the control group. Enzymes were replaced with phosphate buffer in the negative control group. The interference group was incubated like the control group, but the reaction was stopped with 20 µM MDPM in acetonitrile, also containing 2.5 µM trimipramine-d3. All groups were incubated with a NADPH-regenerating system, consisting of 5 mM isocitrate, 2 U/mL isocitrate dehydrogenase, 5 mM Mg^2+, and 1.2 mM NADP^+. Further, substrate cocktail A or B, 90 mM phosphate buffer (pH 7.4), and 200 U/mL superoxide dismutase were added to each group. […] All groups were preincubated for 10 min at 37 °C. Then, pHLM (0.4 mg microsomal protein/mL) was added to each group except the negative control. Incubations were done for 15 min at 37 °C. Therefore, 50 µL of acetonitrile (− 20 °C) containing 2.5 µM trimipramine-d3 as internal standard was added. Incubations were done in triplicates and organic solvent in the incubation mixture was below 1% (Chauret et al. [1998]). Afterwards the samples were vortexed and centrifuged for 2 min at 18,407×g. 70 µL of the supernatant were transferred to autosampler vials and 10 µL were injected onto the LC-HRMS/MS system. Enzyme inhibition was evaluated by metabolite formation. […] The following settings were used: unpaired; one-tailed; significance level, 0.05; confidence intervals, 99%.

CYP2B6 = target: T2, CYP2B6 (Homo sapiens, UniProt P20813); assay: CYP inhibition cocktail assay in pHLM, CYP2B6 (bupropion); conditions: inhibitor 20 µM, bupropion 30 µM, pHLM 0.4 mg/mL, 15 min; control without inhibitor = 100%
T2 sequence (P20813 1-491): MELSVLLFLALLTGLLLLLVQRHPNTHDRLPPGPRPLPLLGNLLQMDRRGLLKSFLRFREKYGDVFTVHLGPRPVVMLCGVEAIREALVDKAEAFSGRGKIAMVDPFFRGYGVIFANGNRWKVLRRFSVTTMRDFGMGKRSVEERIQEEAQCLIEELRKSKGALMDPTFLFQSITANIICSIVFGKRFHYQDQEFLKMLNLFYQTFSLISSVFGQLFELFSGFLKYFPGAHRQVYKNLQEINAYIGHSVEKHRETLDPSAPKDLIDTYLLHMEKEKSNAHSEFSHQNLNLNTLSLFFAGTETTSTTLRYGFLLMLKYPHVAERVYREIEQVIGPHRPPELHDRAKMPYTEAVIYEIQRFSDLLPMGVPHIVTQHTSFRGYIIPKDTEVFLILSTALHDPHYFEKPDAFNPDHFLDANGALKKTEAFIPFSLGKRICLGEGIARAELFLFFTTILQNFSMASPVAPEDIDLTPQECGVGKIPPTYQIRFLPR
Protocol: as §1

CYP2D6 [7] = target: T1, CYP2D6; assay: CYP inhibition cocktail assay in pHLM, CYP2D6 (dextromethorphan); conditions: inhibitor 20 µM, dextromethorphan, pHLM; versus control without inhibitor
Protocol: as §1

CYP2C8 [8] = target: T3, CYP2C8 (Homo sapiens, UniProt P10632); assay: CYP inhibition cocktail assay in pHLM, CYP2C8 (amodiaquine); conditions: inhibitor 100 µM, amodiaquine 2 µM, pHLM 0.4 mg/mL, 15 min; control without inhibitor = 100%
T3 sequence (P10632 1-490): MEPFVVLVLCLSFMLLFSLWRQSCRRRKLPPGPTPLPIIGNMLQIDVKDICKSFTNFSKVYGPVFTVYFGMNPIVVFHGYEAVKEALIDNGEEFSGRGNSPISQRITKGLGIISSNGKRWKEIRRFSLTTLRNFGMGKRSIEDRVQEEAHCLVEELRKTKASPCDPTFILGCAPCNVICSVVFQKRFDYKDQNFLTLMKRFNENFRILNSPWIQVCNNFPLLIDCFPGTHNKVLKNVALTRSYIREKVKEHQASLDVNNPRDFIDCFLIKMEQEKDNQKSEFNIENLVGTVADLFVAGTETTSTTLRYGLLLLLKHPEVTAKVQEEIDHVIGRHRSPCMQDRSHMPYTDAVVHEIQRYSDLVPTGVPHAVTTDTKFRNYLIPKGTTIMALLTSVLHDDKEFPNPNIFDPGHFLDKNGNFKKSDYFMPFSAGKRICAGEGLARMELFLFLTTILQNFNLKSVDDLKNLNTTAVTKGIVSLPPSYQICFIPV
Protocol: as §1

CYP2C8 [9] = conditions: 100 µM trimethoprim; ref Niemi et al. 2004; cited from earlier work
CYP2C9 = CYP2C9 (Homo sapiens, UniProt P11712); assay: CYP inhibition cocktail assay in pHLM, CYP2C9 (diclofenac); conditions: inhibitor 20 µM, diclofenac 3.5 µM, pHLM 0.4 mg/mL, 15 min; control without inhibitor = 100%
Chain of CYP2C9 (P11712 whole entry): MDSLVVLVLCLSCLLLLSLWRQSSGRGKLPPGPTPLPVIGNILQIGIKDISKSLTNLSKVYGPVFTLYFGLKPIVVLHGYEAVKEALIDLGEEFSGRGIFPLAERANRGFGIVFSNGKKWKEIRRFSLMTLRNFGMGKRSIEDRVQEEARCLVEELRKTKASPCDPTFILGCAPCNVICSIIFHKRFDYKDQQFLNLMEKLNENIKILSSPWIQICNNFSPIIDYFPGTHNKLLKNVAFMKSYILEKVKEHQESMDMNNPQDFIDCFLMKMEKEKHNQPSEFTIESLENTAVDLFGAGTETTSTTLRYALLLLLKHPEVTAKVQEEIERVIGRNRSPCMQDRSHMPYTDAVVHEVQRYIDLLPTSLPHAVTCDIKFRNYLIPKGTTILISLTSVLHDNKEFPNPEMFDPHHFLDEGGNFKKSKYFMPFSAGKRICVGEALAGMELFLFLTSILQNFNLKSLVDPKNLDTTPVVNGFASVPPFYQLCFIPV
Protocol: as §1

Structure (SMILES): CNC(C)Cc1ccc2c(c1)OCO2 (stereo not drawn) [MDMA, 3,4-methylenedioxymethamphetamine]
- plasma protein binding (PPB) ([1]; ref Wan Aasim et al. 2017): 43–51%
- in vitro half-life [2]: over 150 min

Structure (SMILES): CC1NCCOC1c1ccccc1 (stereo not drawn) [phenmetrazine]
- plasma protein binding (PPB) ([1]; ref Franksson and Anggard 1970): 20%

Structure (SMILES): CC1NCCOC1c1ccc(O)c(O)c1 (stereo not drawn) [M1, Demethylenyl-MDPM]
- metabolite detection in pHLS9 incubations [3]: could not be identified
- isozymes forming the demethylenyl metabolite (O-demethylenation of MDPM) (CYP2D6 [4]): only found in CYP2D6 incubations
- metabolite detection in HepaRG incubations [5]: could not be identified
- metabolite detection in pHLM incubations [6]: found

Structure (SMILES): COc1cc(C2OCCNC2C)ccc1O (stereo not drawn) [M2]
- metabolite detection in pHLS9 incubations [3]: found

Structure (SMILES): OC(Cn1cncn1)(Cn1cncn1)c1ccc(F)cc1F [Fluconazole, fluconazole, reference compound]
- CYP2C19 metabolite formation (CYP2C19): 48%

Structure (SMILES): CN[C@H]1CC[C@@H](c2ccc(Cl)c(Cl)c2)c2ccccc21 [Sertraline, sertraline, reference compound]
- CYP2B6 metabolite formation (CYP2B6): 24%

Structure (SMILES): CC(N)Cc1ccccc1 (stereo not drawn) [amphetamine]
- plasma protein binding (PPB) ([1]; ref Franksson and Anggard 1970, Losacker et al. 2021): 20–30%

Structure (SMILES): C=C[C@H]1C[N@@]2CC[C@H]1C[C@@H]2[C@@H](O)c1ccnc2ccc(OC)cc12 [Quinidine, quinidine, reference compound]
- decrease in CYP2D6 activity (inhibition) (CYP2D6 [7]): 99%

Structure (SMILES): COc1cc(Cc2cnc(N)nc2N)cc(OC)c1OC [Trimethoprim, trimethoprim, reference compound]
- CYP2C8 metabolite formation (CYP2C8 [8]): 81%
- maximum inhibition of CYP2C8 activity (CYP2C8 [9]): ≤ 40%

Structure (SMILES): Nc1ccc(S(=O)(=O)Nc2ccnn2-c2ccccc2)cc1 [Sulfaphenazole, sulfaphenazole, reference compound]
- CYP2C9 metabolite formation (CYP2C9): 9%
